Assay results published in patent US20260007758A1, “SO[…]-2 RECEPTOR (SST2R) NON-PEPTIDE DRUG CONJUGATES AND USES THEREOF” (Crinetics Pharmaceuticals, Inc., priority 2024, published 2026).

Experiments:
Format in all cases: cell-based
[1] = biological target: T1, human somatostatin receptor subtype 2 (Homo sapiens, UniProt P30874); assay: Functional assay for SSTR2 agonists (HTRF cAMP); details: CHO-K1 cells stably expressing human SST2; NKH477-stimulated cAMP; 20 min at 37 C; read-out: hSST2 cAMP Avg EC50
T1 construct: expressed in transfected cells
From the text: General overview: All five SSTR subtypes are Gi coupled G-protein coupled receptors (GPCRs) that lead to decreases in intracellular cyclic AMP (cAMP) when activated by an agonist. Therefore, measurement of intracellular cAMP levels can be used to assess whether compounds of the invention are agonists of SSTR subtypes (John Kelly, Troy Stevens, W. Joseph Thompson, and Roland Seifert, Current Protocols in Pharmacology. 2005, 2.2.1-2.2). One example of an intracellular cAMP assay is described below.
Four days prior to the assay, 2,000 Chinese hamster ovary cells (CHO-K1, ATCC #CCL-61) stably expressing the human somatostatin receptor subtype 2 are plated in each well of a 96-well tissue culture-treated plate in Ham's F12 growth media (ThermoFisher #10-080-CM) supplemented with 10% donor bovine serum (Gemini Bio-Products #100-506), 100 U/mL penicillin; 100 ug/mL streptomycin, 2 mM L-glutamine (Gemini Bio-Products #400-110) and 0.2 mg/mL hygromycin B (GoldBio #31282-04-9). The cells are cultured at 37° C., 5% CO2 and 95% humidity. cAMP is measured with HTRF dynamic cAMP assay (Cisbio. #62AM5PEJ) per manufacturer's instructions. […] The cells are incubated for 20 minutes at 37° C. (the final concentration of the compounds of the invention are typically 0-10,000 nM). The cells are treated with 50 μL of lysis buffer (HRTF cAMP kit, Cisbio) and incubated at room temperature for 30 minutes with rotary shaking at 600 rpm, and then diluted with 150 μL of stimulation buffer and shaken for an additional five minutes at 300 rpm. The lysate is transferred to 384-well plates and incubated for 1-24 hours at room temperature, and cAMP accumulation is detected by d2-labeled cAMP and Anti-cAMP-Cryptate. The time-resolved fluorescent signal is read using a m1000 Pro (Tecan) or CLARIOStar (BMG Labtech) microplate reader, where the samples are excited with light at 340 nm and emission light is measured at 620 nm and 665 nm. The data is expressed as a calculation of the fluorescence ratio (665 nm/620 nm). The intracellular cAMP concentrations are calculated by regression to a standard curve and are plotted vs, the concentration of the compounds of the invention. The EC50 of the compounds are calculated using standard methods. All data manipulations are in GraphPad Prism v9 (GraphPad, San Diego, CA).

[2] = test system: NCI-H524 human small cell lung cancer cells; assay: H524 assay: inhibition of cell proliferation (CellTiter Glo); details: 2 h treatment, washout, additional 70 h incubation
Description: NDCs of the present invention were assessed in an in vitro assay evaluating the inhibition of cell proliferation. NCI-H524 (ATCC) human small cell lung cancer cells were plated in 96-well V-bottom plates (Costar) at a concentration of 5,000 cells/well. 24 h later, the cells were treated for 2 h with a NDC. NDC starting dose was 1 uM and two-fold serial dilutions were done for a total of 11 points. After 2 h of treatment, cells were spun down, and the drug-containing media was removed, and fresh complete media was added and used to resuspend the cells, which were spun again. After removal of the media, the cells were resuspended in complete medium and incubated for an additional 70 h. Cell proliferation was assessed using the CellTiter Glo Assay according to the standard protocol (Promega). Luminescence was measured using a TECAN plate reader. Percent proliferation inhibition was calculated using the following formula: % inhibition=(Luminescence Control−Luminescence Treatment)/Luminescence Control*100. IC50 curves were generated using the nonlinear regression analysis (four-parameter) with GraphPad Prism 9.

[3] = biological target: T2, SST2 (Homo sapiens, UniProt P30874); assay: PathHunter CHO-K1 SST2 Internalization Assay; details: PathHunter CHO-K1 SST2 cells; 90 min at 37 C; luminescence; read-out: Internalization EC50
T2 construct: host or cells: PathHunter CHO-K1 SST2 cells
Description: NDCs of the present invention were assessed in vitro using the human PathHunter CHO-K1 SST2 β-arrestin2 and PathHunter CHO-K1 SST2 Internalization Assays from DiscoverX. The CHO-K cells were seeded in 20 μLs of cell culture medium in a white-walled 384 well tissue culture-compatible plate at a density of 2500 cells/well. After a 48-hour incubation, cells were treated with 5 μLs of a 1:3 serially diluted SST2 NDC prepared at 5× concentration with a final top compound concentration of 10 uM for 90 min at 37 C and in 5% CO2. 11 dilutions were tested as well as one treatment that was compound free. After incubation, the media containing treatments were discarded and 20 μL of a working solution of Beta-Glo from Promega Beta-Go Assay System was added to each well. The plate was then incubated for 60 min at room temperature in the dark. Luminescence was measured using a Tecan plate reader. IC50 curves were generated using the nonlinear regression analysis (four-parameters) with GraphPad Prism 9. Results were the average of duplicates and are corrected for background.

T1 sequence (P30874 whole entry): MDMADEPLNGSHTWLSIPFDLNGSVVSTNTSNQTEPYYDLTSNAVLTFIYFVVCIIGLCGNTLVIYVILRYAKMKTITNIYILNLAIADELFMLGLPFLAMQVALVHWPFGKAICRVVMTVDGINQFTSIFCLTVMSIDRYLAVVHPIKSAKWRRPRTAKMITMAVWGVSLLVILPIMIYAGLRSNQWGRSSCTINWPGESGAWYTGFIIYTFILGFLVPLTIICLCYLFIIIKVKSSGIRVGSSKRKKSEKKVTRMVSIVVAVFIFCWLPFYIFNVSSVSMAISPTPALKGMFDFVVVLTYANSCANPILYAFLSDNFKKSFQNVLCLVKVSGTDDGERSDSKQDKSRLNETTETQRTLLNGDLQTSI
T2 sequence (P30874 whole entry): as above

SMILES | EC50 [1] | EC50 [2] | EC50 [3]
CC[C@H](C)[C@@H]([C@@H](CC(=O)N1CCC[C@H]1[C@H](OC)[C@@H](C)C(=O)N[C@H](C)[C@@H](O)c1ccccc1)OC)N(C)C(=O)[C@@H](NC(=O)[C@H](C(C)C)N(C)C(=O)OCc1ccc(NC(=O)[C@H](CCCNC(N)=O)NC(=O)[C@@H](NC(=O)[C@H](CCC(=O)O)NC(=O)CCOCCOCCOCCOCCC(=O)NCCNc2ncc(-c3cc(C)cc(F)c3)c(N3CCC(N)CC3)c2-c2nc3ccc(Cl)cc3[nH]2)C(C)C)cc1C(=O)O)C(C)C [Compound 3] | 0.19 nM | 680 nM | 6.8 nM
CC[C@H](C)[C@@H]([C@@H](CC(=O)N1CCC[C@H]1[C@H](OC)[C@@H](C)C(=O)N[C@H](C)[C@@H](O)c1ccccc1)OC)N(C)C(=O)[C@@H](NC(=O)[C@H](C(C)C)N(C)C(=O)OCc1ccc(NC(=O)[C@H](CCCNC(N)=O)NC(=O)[C@@H](NC(=O)CCOCCOCCOCCOCCC(=O)NCCNc2ncc(-c3cc(C)cc(F)c3)c(N3CCC(N)CC3)c2-c2nc3ccc(Cl)cc3[nH]2)C(C)C)cc1C(=O)O)C(C)C [Compound 4] | 0.11 nM | 740 nM | 3.8 nM
CC[C@H](C)[C@@H]([C@@H](CC(=O)N1CCC[C@H]1[C@H](OC)[C@@H](C)C(=O)N[C@H](C)[C@@H](O)c1ccccc1)OC)N(C)C(=O)[C@@H](NC(=O)[C@H](C(C)C)N(C)C(=O)OCc1ccc(NC(=O)[C@H](CCCNC(N)=O)NC(=O)[C@@H](NC(=O)[C@H](CCC(N)=O)NC(=O)CCOCCC(=O)NCCNc2ncc(-c3cc(C)cc(F)c3)c(N3CCC(N)CC3)c2-c2nc3ccc(Cl)cc3[nH]2)C(C)C)cc1C(=O)O)C(C)C [Compound 5] | 0.29 nM | 520 nM | 2.2 nM
CC[C@H](C)[C@@H]([C@@H](CC(=O)N1CCC[C@H]1[C@H](OC)[C@@H](C)C(=O)N[C@H](C)[C@@H](O)c1ccccc1)OC)N(C)C(=O)[C@@H](NC(=O)[C@H](C(C)C)N(C)C(=O)OCc1ccc(NC(=O)[C@H](CCCNC(N)=O)NC(=O)[C@@H](NC(=O)[C@H](CCC(=O)O)NC(=O)CCOCCC(=O)NCCNc2ncc(-c3cc(C)cc(F)c3)c(N3CCC(N)CC3)c2-c2nc3ccc(Cl)cc3[nH]2)C(C)C)c(C(F)(F)F)c1)C(C)C [Compound 6] | 0.21 nM | 7300 nM | 3.5 nM
CC[C@H](C)[C@@H]([C@@H](CC(=O)N1CCC[C@H]1[C@H](OC)[C@@H](C)C(=O)N[C@H](C)[C@@H](O)c1ccccc1)OC)N(C)C(=O)[C@@H](NC(=O)[C@H](C(C)C)N(C)C(=O)OCc1ccc(NC(=O)[C@H](CCCNC(N)=O)NC(=O)[C@@H](NC(=O)CCOCCC(=O)NCCNc2ncc(-c3cc(C)cc(F)c3)c(N3CCC(N)CC3)c2-c2nc3ccc(Cl)cc3[nH]2)C(C)C)c(C)c1)C(C)C [Compound 9] | 0.38 nM | 4.3 nM | 2.5 nM
CC[C@H](C)[C@@H]([C@@H](CC(=O)N1CCC[C@H]1[C@H](OC)[C@@H](C)C(=O)N[C@H](C)[C@@H](O)c1ccccc1)OC)N(C)C(=O)[C@@H](NC(=O)[C@H](C(C)C)N(C)C(=O)OCc1ccc(NC(=O)[C@H](CCCNC(N)=O)NC(=O)[C@@H](NC(=O)CCOCCC(=O)NCCNc2ncc(-c3cc(C)cc(F)c3)c(N3CCC(N)CC3)c2-c2nc3ccc(Cl)cc3[nH]2)C(C)C)c(OCCN)c1)C(C)C [Compound 10] | 0.21 nM | 0.76 nM | 2.7 nM
CC[C@H](C)[C@@H]([C@@H](CC(=O)N1CCC[C@H]1[C@H](OC)[C@@H](C)C(=O)N[C@H](C)[C@@H](O)c1ccccc1)OC)N(C)C(=O)[C@@H](NC(=O)[C@H](C(C)C)N(C)C(=O)OCc1ccc(NC(=O)[C@H](CCCNC(N)=O)NC(=O)[C@@H](NC(=O)CCOCCC(=O)NCCNc2ncc(-c3cc(C)cc(F)c3)c(N3CCC(N)CC3)c2-c2nc3ccc(Cl)cc3[nH]2)C(C)C)c(OC)c1)C(C)C [Compound 11] | 0.33 nM | 14 nM | 10 nM
CC[C@H](C)[C@@H]([C@@H](CC(=O)N1CCC[C@H]1[C@H](OC)[C@@H](C)C(=O)N[C@H](C)[C@@H](O)c1ccccc1)OC)N(C)C(=O)[C@@H](NC(=O)[C@H](C(C)C)N(C)C(=O)OCc1ccc(NC(=O)[C@H](CCCNC(N)=O)NC(=O)[C@@H](NC(=O)CCOCCC(=O)NCCNc2ncc(-c3cc(C)cc(F)c3)c(N3CCC(N)CC3)c2-c2nc3ccc(Cl)cc3[nH]2)C(C)C)c(OCCO)c1)C(C)C [Compound 12] | 0.24 nM | 3.9 nM | 6.9 nM
CC[C@H](C)[C@@H]([C@@H](CC(=O)N1CCC[C@H]1[C@H](OC)[C@@H](C)C(=O)N[C@H](C)[C@@H](O)c1ccccc1)OC)N(C)C(=O)[C@@H](NC(=O)[C@H](C(C)C)N(C)C(=O)OCc1ccc(NC(=O)[C@H](C)NC(=O)[C@@H](NC(=O)CCOCCC(=O)NCCNc2ncc(-c3cc(C)cc(F)c3)c(N3CCC(N)CC3)c2-c2nc3ccc(Cl)cc3[nH]2)C(C)C)c(OCC(=O)O)c1)C(C)C [Compound 13] | 0.16 nM | 11 nM | 3.2 nM
CC[C@H](C)[C@@H]([C@@H](CC(=O)N1CCC[C@H]1[C@H](OC)[C@@H](C)C(=O)N[C@H](C)[C@@H](O)c1ccccc1)OC)N(C)C(=O)[C@@H](NC(=O)[C@H](C(C)C)N(C)C(=O)OCc1ccc(NC(=O)[C@H](C)NC(=O)[C@@H](NC(=O)CCOCCOCCOCCOCCC(=O)NCCNc2ncc(-c3cc(C)cc(F)c3)c(N3CCC(N)CC3)c2-c2nc3ccc(Cl)cc3[nH]2)C(C)C)c(OCC(=O)O)c1)C(C)C [Compound 14] | 0.037 nM | 19 nM | 4.6 nM
CC[C@H](C)[C@@H]([C@@H](CC(=O)N1CCC[C@H]1[C@H](OC)[C@@H](C)C(=O)N[C@H](C)[C@@H](O)c1ccccc1)OC)N(C)C(=O)[C@@H](NC(=O)[C@H](C(C)C)N(C)C(=O)OCc1ccc(NC(=O)[C@H](CCCNC(N)=O)NC(=O)[C@@H](NC(=O)[C@H](CCC(=O)O)NC(=O)CCOCCC(=O)NCCNc2ncc(-c3cc(C)cc(F)c3)c(N3CCC(N)CC3)c2-c2nc3ccc(Cl)cc3[nH]2)C(C)C)c(C)c1)C(C)C [Compound 15] | 0.27 nM | 91 nM | 17 nM
CC[C@H](C)[C@@H]([C@@H](CC(=O)N1CCC[C@H]1[C@H](OC)[C@@H](C)C(=O)N[C@H](C)[C@@H](O)c1ccccc1)OC)N(C)C(=O)[C@@H](NC(=O)[C@H](C(C)C)N(C)C(=O)OCc1ccc(NC(=O)[C@H](CCCNC(N)=O)NC(=O)[C@@H](NC(=O)[C@H](CCC(=O)O)NC(=O)CCOCCC(=O)NCCNc2ncc(-c3cc(C)cc(F)c3)c(N3CCC(N)CC3)c2-c2nc3ccc(Cl)cc3[nH]2)C(C)C)c(OC)c1)C(C)C [Compound 16] | 0.083 nM | 160 nM | 7.8 nM
